Data on two compounds can be found in paper PMC9101087, “A Sensitive LC-MS/MS Method for the Simultaneous Determination of Two Thia-Analogous Indirubin N-Glycosides and Indirubin-3′-Monoxime in Plasma and Cell Culture Medium” (Molecules, 2022).

Bounds are passed on as bounds.

In data set [1] the test system is A431 (skin squamous cell carcinoma). Kind of data set: WST-1 cell viability assay, 48-h incubation. In kind it is cell-based, human. The settings on record: A431, WST-1, 48 h, vs. vehicle; even at 3 µM in some (unnamed) cell lines. Here is the method: (§1) To test the biological activity of the thia-analogous indirubin N-glycosides that are the focus of the present work, the effects of KD87 and KD85 and their non-glycosylated parent compound KD88 on the viability of various tumor cell lines were initially investigated. The corresponding analyses were performed using the cell lines A375 (melanoma), A431 (skin squamous cell carcinoma), A549 (non-small cell lung carcinoma), U251MG (glioblastoma), and U138MG (glioblastoma).
(§2) Figure 2 Effect of increasing concentrations of KD87 (A), KD85 (B), and KD88 (C) on viability of various cancer cells. A375 (melanoma; black columns), A431 (skin squamous cell carcinoma; dark grey columns), A549 (non-small cell lung carcinoma; grey columns), U251MG (glioblastoma; light grey columns), or U138MG (glioblastoma; white columns) were incubated for 48 h with the appropriate compounds or vehicle followed by determination of cell viability by WST-1 assay. Percent control represents comparison with vehicle-treated cells (100%) in the absence of test substance. Values are mean ± standard error of the mean (SEM) of n = 15 in all panels, except n = 14 for A375 and A431 cells in panel B and n = 14–15 for A375 cells in panel C, from four (A375, A431) or five (A549, U251MG, U138MG) independent experiments. * p ≤ 0.05, ** p ≤ 0.01, *** p ≤ 0.001, **** p ≤ 0.0001 vs. vehicle control; one-way ANOVA with Dunnett’s post hoc test.
(§3) The human melanoma cell line A375 (#300110; RRID:CVCL_0132) as well as the human skin epidermoid carcinoma cell line A431 (#300112; RRID:CVCL_0037) were purchased from CLS Cell Lines Service GmbH (Eppelheim, Germany). The human glioblastoma cell line U251MG (#09063001; RRID:CVCL_0021) was from Sigma-Aldrich Corporation. The human glioblastoma cell line U138MG (#ACC 291; RRID: CVCL_0020) and the human lung carcinoma cell line A549 (#ACC 107, RRID:CVCL_0023) were purchased from DSMZ (Deutsche Sammlung von Mikroorganismen und Zellkulturen GmbH, Braunschweig, Germany).
(§4) Cells were cultured in high-glucose DMEM (with GlutaMAX™-I: A375, A431; with UltraGlutamine^TM I: A549, U251MG, U138MG) supplemented with 10% heat-inactivated FBS, 100 U/mL penicillin, and 100 μg/mL streptomycin and grown in a humidified incubator at 37 °C and 5% CO2. For viability analyses, cells were seeded in 96-well plates at a density of 5000 cells per well in DMEM containing 10% heat-inactivated FBS and cultured for 24 h. All cell experiments with the specific substances were performed in serum-free DMEM supplemented with 100 U/mL penicillin and 100 μg/mL streptomycin, applied after washing the cells with DPBS. The test substances were dissolved in DMSO. The final concentration of DMSO in the incubation media of test substance- and vehicle-treated cells was 1% (v/v).
(§5) After completion of the 48-h incubation, WST-1 reagent (Sigma, Taufkirchen, Germany) was added to the cells to achieve a final dilution of 1:10, and the cells were incubated for an additional 20 min before absorbance was measured at 450 nm, reference wavelength […], using a microplate reader.
(In general: Tetrazolium assays rely on reduction of a dye to a coloured formazan, in cell work by metabolically active cells.)

In data set [2] the test system is A549 (non-small cell lung carcinoma). Kind of data set: WST-1 cell viability assay, 48-h incubation. The data set is classed as cell-based, human. The settings on record: A549, WST-1, 48 h, vs. vehicle; even at 3 µM in some (unnamed) cell lines. The method, then: as §1, §2, §3, §4, §5
In another data set the test system is A375 (melanoma). Kind of data set: WST-1 cell viability assay, 48-h incubation. The data set is classed as cell-based, human. The settings on record: A375, WST-1, 48 h, vs. vehicle; even at 3 µM in some (unnamed) cell lines. The method, then: as §1, §2, §3, §4, §5
The next data set concerns U138MG (glioblastoma). Kind of data set: WST-1 cell viability assay, 48-h incubation. The data set is classed as cell-based, human. The settings on record: WST-1, 48 h, vs. vehicle, even at 3 µM in some (unnamed) cell lines. Here is the method:
as §1, §2, §3, §4, §5

Data set [3] in a line: Storage stability in human plasma, LC-MS/MS after plasma precipitation. In kind it is in vitro ADME. The following applies: long-term freezing.
The nature of data set [4]: Storage stability in human plasma, LC-MS/MS after plasma extraction. The following applies: for Stability 4 °C / Stability AS (autosampler) / Stability −20 °C / Stability BT (benchtop): 24 h; for Stability FT (freeze-thaw): freeze-thaw cycles; for Stability −80 °C 90 d: long-term freezing; for Stability BT (benchtop): room temperature. The data set is classed as in vitro ADME. Here is the method:
To assess stability, low and high concentrations of all analytes were subjected to different storage conditions. […] For determination of long-term stability, samples were stored in either plasma or DMEM at –80 °C for 90 and 91 days, respectively. To measure short-term stability, samples were stored at room temperature, in an autosampler, at 4 °C, and at –20 °C for 24 h. In addition, freeze-thaw cycles were performed according to FDA guidance for the standard solutions. For comparison, at least three freshly prepared samples were prepared for each concentration level. With the exception of autosampler stability, the internal standard was always added to all samples before sample processing was started.
Liquid-liquid extraction was performed identically for plasma and DMEM samples. After addition of the 1.0 µM internal standard, 50 µL of 0.8 M alkaline carbonate buffer was added. The extraction was performed once with 890 µL ethyl acetate. Tubes were then shaken for 10 min at 1400 rpm using a Thermomixer 5436 (Eppendorf AG, Hamburg, Germany) followed by centrifugation for 5 min at 14,000 rpm using a Centrifuge 5415 C (Eppendorf AG, Hamburg, Germany). Subsequently, 850 µL of the supernatant was transferred to a new tube and evaporated to dryness for 35 min at 35 °C (8 min heating time) using a SpeedVac SPD130DLX (Thermo Fisher Scientific, Asheville, NC, USA). Reconstitution was performed with 200 µL of a acetonitrile/water/H2SO4 [3/0.5/0.5] mixture, shaken at 1400 rpm for 5 min, and centrifuged again at 14,000 rpm for 5 min. Finally, 155 µL of the sample was transferred to an LC vial and analyzed.
To assess stability, low and high concentrations of all analytes were exposed to different storage conditions. To determine long-term stability, samples were stored in either plasma or DMEM at −80 °C for 90 and 91 days, respectively. To determine short-term stability, samples were stored for 24 h on the bench at room temperature, in the autosampler, at 4 °C, and at −20 °C. In addition, freeze-thaw cycles were performed for the standard solutions according to FDA guidance. At least three freshly prepared samples per concentration level were prepared for comparison. With the exception of the stability test in the autosampler, the internal standard was always added to all samples before sample processing was started. However, to avoid concentration fluctuations due to possible degradation of the analytes, stock solutions were prepared twice a week and stored at −20 °C. Each storage condition was examined in the dark. For all conditions studied, n = 3–6 replicates were prepared.

In the case of `O=C1/C(=C2/C(=O)N([C@@H]3O[C@H](CO)[C@@H](O)[C@H](O)[C@@H]3O)c3ccccc32)Sc2ccccc21` [KD85, 3-[3′-oxo-benzo[b]thiophene-2′-(Z)-ylidene]-1-(β-D-mannopyranosyl)-oxindole], the “concentration from which significant cytotoxic effects start” value in data set [1] was not above 6 µM. Also, in data set [2], the “concentration from which significant cytotoxic effects start” value is recorded as not above 6 µM. Also, the “concentration from which significant cytotoxic effects start” value with A375 (melanoma) is recorded as not above 6 µM. Moreover, in the data set on U138MG (glioblastoma), the “concentration from which significant cytotoxic effects start” value is not above 6 µM. In addition, the “Stability −80 °C 91 d” value in data set [3] (2.0 nM) was found to be 105.1 ± 12.4%. The “Stability −80 °C 91 d” value in data set [3] (167 nM) came out at 108.2 ± 3.7%. In data set [4] (3.0 nM), the “Stability 4 °C” value is given as 85.5 ± 2.2%, the “Stability AS (autosampler)” value was found to be 71.8 ± 2.7%, the “Stability −20 °C” value is 86.4 ± 3.5% and the “Stability FT (freeze-thaw)” value was found to be 99.4 ± 4.0%. Further, in data set [4] (3.0 nM), the “Stability −80 °C 90 d” value is reported as 102.5 ± 5.2% and the “Stability BT (benchtop)” value was 64.4 ± 3.6%. In addition, in data set [4] (250 nM), the “Stability 4 °C” value was 94.3 ± 5.7%, the “Stability AS (autosampler)” value is 73.1 ± 2.7%, the “Stability −20 °C” value was determined as 101.8 ± 3.2% and the “Stability FT (freeze-thaw)” value is 99.1 ± 2.0%. In data set [4] (250 nM), the “Stability −80 °C 90 d” value came to 101.7 ± 1.1% and the “Stability BT (benchtop)” value stood at 76.0 ± 2.6%.

On to `O=C1/C(=C2/C(=O)N([C@@H]3O[C@H](CO)[C@@H](O)[C@H](O)[C@H]3O)c3ccccc32)Sc2ccccc21` [KD87, 3-[3′-oxo-benzo[b]thiophen-2′-(Z)-ylidene]-1-(β-D-glucopyranosyl)-oxindole], for which, in data set [1], the “concentration from which significant cytotoxic effects start” value is not above 6 µM. In addition, the “concentration from which significant cytotoxic effects start” value in data set [2] is given as not above 6 µM. Further, the “concentration from which significant cytotoxic effects start” value with A375 (melanoma) is not above 6 µM. Moreover, the “concentration from which significant cytotoxic effects start” value in the data set on U138MG (glioblastoma) was not above 6 µM. Also, the “Stability −80 °C 91 d” value in data set [3] (2.0 nM) worked out at 96.7 ± 8.6%. The “Stability −80 °C 91 d” value in data set [3] (167 nM) was 106.0 ± 1.4%. For the same compound, in data set [4] (3.0 nM), the “Stability 4 °C” value turned out to be 79.3 ± 2.4%, the “Stability AS (autosampler)” value was 80.8 ± 3.0%, the “Stability −20 °C” value stood at 101.4 ± 3.4% and the “Stability FT (freeze-thaw)” value was determined as 98.3 ± 5.4%. In data set [4] (3.0 nM), the “Stability −80 °C 90 d” value turned out to be 100.1 ± 8.4% and the “Stability BT (benchtop)” value was 64.4 ± 4.6%. For the same compound, in data set [4] (250 nM), the “Stability 4 °C” value worked out at 94.1 ± 5.6%, the “Stability AS (autosampler)” value was found to be 73.7 ± 3.3%, the “Stability −20 °C” value came to 100.1 ± 0.7% and the “Stability FT (freeze-thaw)” value was found to be 99.7 ± 2.6%. Also, in data set [4] (250 nM), the “Stability −80 °C 90 d” value is given as 100.9 ± 3.6% and the “Stability BT (benchtop)” value was determined as 77.8 ± 2.7%.
